In patent publication US8962602B2, “Anticancer steroidal lactones unsaturated in position 7 (8)” (Pharma Mar, S.A., priority 2010, dated 2015):
Values joined by “and” are separate entries in the source; they are usually repeats but may differ in a detail not shown here. Identical values can stand only once. Like-named read-outs stand apart in the source and are kept apart here.

What was measured:
Experiment in all cases: Cytotoxicity assay, SRB colorimetric assay
Format in all cases: cell-based
[1] = test system: A549; conditions: for TGI / GI50: A549 lung carcinoma (NSCLC), 72 hours treatment; for TGI: total cell growth inhibition (cytostatic effect); for GI50 / CC50: Homo sapiens, A549, 72 h; for GI50: 50% cell growth inhibition; for CC50: read-out: LC50, A549 lung carcinoma (NSCLC), 72 hours treatment, 50% net cell killing (cytotoxic effect)
Excerpt: (§1) The aim of this assay is to evaluate the in vitro cytostatic (ability to delay or arrest tumor cell growth) or cytotoxic (ability to kill tumor cells) activity of the samples being tested.
(§2) A colorimetric assay, using sulforhodamine B (SRB) reaction has been adapted to provide a quantitative measurement of cell growth and viability (following the technique described by Skehan et al. J. Natl. Cancer Inst. 1990, 82, 1107-1112).
(§3) This form of assay employs SBS-standard 96-well cell culture microplates (Faircloth et al. Methods in Cell Science, 1988, 11(4), 201-205; Mosmann et al, Journal of Immunological Methods, 1983, 65(1-2), 55-63). All the cell lines used in this study were obtained from the American Type Culture Collection (ATCC) and derive from different types of human cancer.
(§4) Cells were maintained in Dulbecco's Modified Eagle Medium (DMEM) supplemented with 10% Fetal Bovine Serum (FBS), 2 mM L-glutamine, 100 U/mL penicillin and 100 U/mL streptomycin at 37° C., 5% CO2 and 98% humidity. For the experiments, cells were harvested from subconfluent cultures using trypsinization and resuspended in fresh medium before counting and plating.
(§5) Cells were seeded in 96 well microtiter plates, at 5×10^3 cells per well in aliquots of 150 μL, and allowed to attach to the plate surface for 18 hours (overnight) in drug free medium. After that, one control (untreated) plate of each cell line was fixed (as described below) and used for time zero reference value. Culture plates were then treated with test compounds (50 μL aliquots of 4× stock solutions in complete culture medium plus 4% DMSO) using ten serial dilutions (concentrations ranging from 10 to 0.00262 μg/mL) and triplicate cultures (1% final concentration of DMSO). After 72 hours treatment, the antitumor effect was measured by using the SRB methodology: Briefly, cells were washed twice with PBS, fixed for 15 min in 1% glutaraldehyde solution at room temperature, rinsed twice in PBS, and stained in 0.4% SRB solution for 30 min at room temperature. Cells were then rinsed several times with 1% acetic acid solution and air-dried at room temperature. SRB was then extracted in 10 mM trizma base solution and the absorbance measured in an automated spectrophotometric plate reader at 490 nm. Effects on cell growth and survival were estimated by applying the NCl algorithm (Boyd M R and Paull K D. Drug Dev. Res. 1995, 34, 91-104).
(§6) Using the mean±SD of triplicate cultures, a dose-response curve was automatically generated using nonlinear regression analysis. Three reference parameters were calculated (NCI algorithm) by automatic interpolation: GI50=compound concentration that produces 50% cell growth inhibition, as compared to control cultures; TGI=total cell growth inhibition (cytostatic effect), as compared to control cultures, and LC50=compound concentration that produces 50% net cell killing (cytotoxic effect).

[2] = test system: MDA-MB-231; conditions: for GI50: 50% cell growth inhibition; for TGI: total cell growth inhibition (cytostatic effect)
Excerpt: as §1, §2, §3, §4, §5, §6

[3] = test system: HT29; conditions: for TGI: total cell growth inhibition (cytostatic effect); for GI50: 50% cell growth inhibition
Excerpt: as §1, §2, §3, §4, §5, §6

[4] = Homo sapiens, MDA-MB-231, 72 h, MDA-MB-231 breast adenocarcinoma, 72 hours treatment
[5] = Homo sapiens, MDA-MB-231, 72 h, read-out: LC50, MDA-MB-231 breast adenocarcinoma, 72 hours treatment, 50% net cell killing (cytotoxic effect)
[6] = MDA-MB-231 breast adenocarcinoma, 72 hours treatment
[7] = HT29 colorectal adenocarcinoma, 72 hours treatment
[8] = Homo sapiens, HT-29, 72 h, HT29 colorectal adenocarcinoma, 72 hours treatment
[9] = Homo sapiens, HT-29, 72 h, read-out: LC50, HT29 colorectal adenocarcinoma, 72 hours treatment, 50% net cell killing (cytotoxic effect)

| SMILES | TGI [1] [Molar] | GI50 [1] [nM] | CC50 [1] [nM] | GI50 [2, 4] [nM] | CC50 [2, 5] [nM] | TGI [2, 6] | TGI [3, 7] | GI50 [3, 8] [nM] | LC50 (50% net cell killing) [3, 9] [nM] | GI50 [2, 6] [nM] | CC50 ([2]; read-out: LC50, MDA-MB-231 breast adenocarcinoma, 72 hours treatment, 50% net cell killing (cytotoxic effect)) [nM] | GI50 [3, 7] [nM] | LC50 (50% net cell killing) ([3]; read-out: LC50, HT29 colorectal adenocarcinoma, 72 hours treatment, 50% net cell killing (cytotoxic effect)) [nM] |
| --- | --- | --- | --- | --- | --- | --- | --- | --- | --- | --- | --- | --- | --- |
| CO[C@H]1C=C[C@]2(C)[C@H]3CC[C@]4(C)[C@@H](c5ccc(=O)oc5)C(Cl)(Cl)C[C@]4(O)C3=CC[C@H]2C1(C)C [Aegomycin E] | 5.67E−8 | 42.6 | 75 | 197 | 750 | 3.65E−7 Molar | 4.86E−7 Molar | 118 | 5270 | – | – | – | – |
| CO[C@H]1C=C[C@]2(C)[C@H]3CC[C@]4(C)[C@@H](c5ccc(=O)oc5)[C@@H](Cl)C[C@]4(O)C3=CC[C@H]2C1(C)C [Aegomycin G] | 6.32E−8 | 39.2 | 111 | 170 | 1290 | 4.36E−7 Molar | 6.75E−7 Molar | 146 | 3920 | – | – | – | – |
| CC1(C)C(=O)C=C[C@]2(C)[C@H]3CC[C@]4(C)[C@@H](c5ccc(=O)oc5)C(Cl)(Cl)C[C@]4(O)C3=CC[C@@H]12 [Aegomycin C] | 1.72E−8 | 7.54 | 41.9 | 62.8 | 691 | 1.97E−7 Molar | 1.05E−7 Molar | 9.84 | > 20900 | – | – | – | – |
| CO[C@H]1[C@H]2O[C@H]2[C@]2(C=O)[C@H]3CC[C@]4(C)[C@@H](c5ccc(=O)oc5)C(Cl)(Cl)C[C@]4(O)C3=CC[C@H]2C1(C)C [Aegomycin A] | 4.39E−9 | 3.82 | 5.35 | 19.1 | 61.1 | 3.63E−8 Molar | 3.25E−8 Molar | 10.5 | 115 | – | – | – | – |
| CO[C@H]1C=C[C@]2(C)[C@H]3C[C@@H](O)[C@]4(C)[C@@H](c5ccc(=O)oc5)C(Cl)(Cl)C[C@]4(O)C3=CC[C@H]2C1(C)C [Aegomycin D] | 1.28E−8 | 8.64 | 18.3 | 64.8 | 173 | 9.81E−8 Molar | 1.35E−7 Molar | 31.4 | 1450 | – | – | – | – |
| CO[C@H]1[C@H]2O[C@H]2[C@]2(CO)[C@H]3CC[C@]4(C)[C@@H](c5ccc(=O)oc5)C(Cl)(Cl)C[C@]4(O)C3=CC[C@H]2C1(C)C [Aegomycin B] | 7.61E−9 | 5.9 | 11.4 | 76.1 | 381 | 1.67E−7 Molar | 2.28E−7 Molar | 30.4 | 3040 | – | – | – | – |
| CC1(C)C(=O)C=C[C@]2(C)[C@H]3CC[C@]4(C)[C@@H](c5ccc(=O)oc5)[C@@H](Cl)C[C@]4(O)C3=CC[C@@H]12 [Aegomycin F] | – | – | – | 88 | 948 | 2.71E−7 Molar and 2.03E−7 Molar | 4.06E−7 Molar and 2.03E−7 Molar | 65.5 | 3160 | 81.1 | 608 | 36.5 | 4860 |
